Drawing on US6262084A, “Compounds that inhibit the binding of integrins to their receptors” (Texas Biotechnology Corporation, priority 1999, dated 2001), this text covers IC50 and inhibition for 25 molecules.

pIC50: −log10 of the molar value. Bounds are passed on as bounds.

The assay addresses T1, α4β1 integrin (Homo sapiens, UniProt P05556+P13612).
T1 construct: Ramos cells fluorescently labeled with calcein; endogenous in cells; host or cells: Ramos cells
Kind of assay: Inhibition of adhesion of calcein-labeled Ramos cells to CS1 (fibronectin) peptide-conjugated ovalbumin. The class given is cell-based. Particulars: for pIC50: dose required to give 50% inhibition, Ramos cell adhesion to CS1-ovalbumin, 30 minutes at 37° C; for inhibition at 100 µM: Ramos, compound at a concentration of 100 μM, read-out: % A (percent inhibition of cell adhesion). As to the method:
The ability of compounds of the present invention to inhibit binding is described in detail hereinafter in the Examples by a procedure in which a 26-amino acid peptide containing the CS1 sequence of fibroncctin with an N-terminal Cys was coupled to maleimide activated ovalbumin. Ovalbumin and CS1 conjugated ovalbumin were coated onto 96-well polystyrene plates at 5 μg/ml in TBS (50 mM Tris, pH 7.5; 150 mM NaCl) at 4° C. for 16 hours. The plates were washed three times with TBS and blocked with TBS containing 3% BSA at room temperature for 4 hours. Blocked plates were washed three times in binding buffer (TBS; 1 mM MgCl2; 1 mM CaCl2; 1 mM MnCl2) prior to assay. Ramos cells fluorescently labeled with calcein AMC-3099 were resuspended in binding buffer (10^7 cells/ml) and diluted 1:2 with same buffer with or without compound. The cells were added immediately to the wells (2.5×10^5 cells/well) and incubated for 30 minutes at 37° C. Following three washes with binding buffer, adherent cells were lysed and quantitated using a fluorometer.
IC50 is defined as the dose required to give 50% inhibition. The lower the IC50 value and the greater the percentage of inhibition, the more efficient the compound is at prevention of cell adhesion. A stands for inhibition in Table 1, and the percent inhibition indicates the inhibition of cell adhesion when compound is included in the assay at a concentration of 100 μM.

T1 sequence (P13612 34-1032): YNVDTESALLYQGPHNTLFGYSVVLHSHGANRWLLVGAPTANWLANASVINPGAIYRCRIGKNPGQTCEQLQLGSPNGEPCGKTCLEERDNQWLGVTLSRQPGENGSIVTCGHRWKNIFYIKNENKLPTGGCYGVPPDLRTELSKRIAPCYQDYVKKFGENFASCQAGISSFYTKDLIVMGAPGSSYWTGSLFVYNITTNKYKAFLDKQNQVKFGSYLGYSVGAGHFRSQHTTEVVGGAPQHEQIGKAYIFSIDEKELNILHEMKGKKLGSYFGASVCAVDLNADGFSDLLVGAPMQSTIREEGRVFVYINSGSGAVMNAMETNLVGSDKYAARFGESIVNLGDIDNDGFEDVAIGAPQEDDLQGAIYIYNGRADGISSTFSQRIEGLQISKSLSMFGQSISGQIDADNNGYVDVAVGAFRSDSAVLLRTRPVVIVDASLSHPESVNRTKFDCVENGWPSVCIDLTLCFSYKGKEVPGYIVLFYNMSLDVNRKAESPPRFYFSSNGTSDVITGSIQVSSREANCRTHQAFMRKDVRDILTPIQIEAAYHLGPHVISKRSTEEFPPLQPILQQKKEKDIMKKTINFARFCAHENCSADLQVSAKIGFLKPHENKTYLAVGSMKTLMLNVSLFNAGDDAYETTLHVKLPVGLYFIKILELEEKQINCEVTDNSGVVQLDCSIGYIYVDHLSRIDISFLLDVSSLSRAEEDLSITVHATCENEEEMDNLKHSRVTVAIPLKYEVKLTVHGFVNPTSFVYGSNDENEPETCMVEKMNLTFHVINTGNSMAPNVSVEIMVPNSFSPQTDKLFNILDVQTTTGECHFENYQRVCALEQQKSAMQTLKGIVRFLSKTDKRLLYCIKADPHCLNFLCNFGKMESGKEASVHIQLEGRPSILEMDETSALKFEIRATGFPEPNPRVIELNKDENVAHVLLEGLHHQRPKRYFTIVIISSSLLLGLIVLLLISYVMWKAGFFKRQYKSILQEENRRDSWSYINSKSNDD
T1 sequence (P05556 21-798): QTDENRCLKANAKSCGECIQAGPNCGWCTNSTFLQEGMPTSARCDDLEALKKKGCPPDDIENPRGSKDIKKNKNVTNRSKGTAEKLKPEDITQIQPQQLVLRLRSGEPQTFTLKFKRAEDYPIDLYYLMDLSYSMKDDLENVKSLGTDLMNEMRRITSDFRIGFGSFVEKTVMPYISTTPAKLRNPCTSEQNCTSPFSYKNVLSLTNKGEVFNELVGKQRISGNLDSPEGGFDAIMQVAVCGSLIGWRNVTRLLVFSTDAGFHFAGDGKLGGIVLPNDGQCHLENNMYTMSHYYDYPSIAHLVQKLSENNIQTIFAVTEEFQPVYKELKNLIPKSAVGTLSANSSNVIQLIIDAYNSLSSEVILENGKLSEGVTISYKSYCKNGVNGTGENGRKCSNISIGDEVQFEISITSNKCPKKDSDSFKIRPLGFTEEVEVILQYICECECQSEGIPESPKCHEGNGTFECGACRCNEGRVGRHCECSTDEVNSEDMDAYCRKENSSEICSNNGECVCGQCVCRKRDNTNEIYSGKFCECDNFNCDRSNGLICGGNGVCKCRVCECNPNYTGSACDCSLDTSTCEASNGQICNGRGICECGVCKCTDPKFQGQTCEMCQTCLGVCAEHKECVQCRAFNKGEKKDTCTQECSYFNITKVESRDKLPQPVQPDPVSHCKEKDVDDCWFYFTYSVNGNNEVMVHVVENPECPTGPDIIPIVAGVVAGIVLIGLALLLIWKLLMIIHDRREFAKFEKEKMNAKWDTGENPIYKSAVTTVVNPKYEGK

Consider `CCCC[C@H](NC(=O)N[C@@H](CC(=O)O)c1ccc2c(c1)OCO2)C(=O)NCc1ccc(OCc2ccccc2C)c(OC)c1` [Compound 38, 3-(3S)-3-(1,3-benzodioxol-5-yl)-3-([((1S)-1-[(4-(2-methylbenzyloxy)-3-methoxybenzyl)amino]carbonylpentyl)amino]carbonylamino)propanoic acid], for which the pIC50 (Table 2) was 7.70.
The same measure, in the same setting: the same measure for `CCCC[C@H](NC(=O)N[C@@H](CC(=O)O)c1ccc2c(c1)OCO2)C(=O)NCc1ccc(NCc2nccs2)cc1` [Compound 40, 3(3S)-3-(1,3-benzodioxol-5-yl)-3-([((1S)-1-[(4-(1,3-thiazol-2-ylmethyl)aminobenzyl)amino]carbonylpentyl)amino]carbonylamino)propanoic acid]: 6.92.
In the case of `O=C(O)C[C@H](NC(=O)O[C@H](COCc1ccccc1)CSCc1ccccc1)c1ccc2c(c1)OCO2` [(3S)-3-(1,3-benzodioxol-5-yl)-3-{[({(1R)-2-(benzyloxy)-1-[(benzylthio)methyl]ethyl}oxy)carbonyl]amino}propanoic acid], under “Table 1”, the inhibition at 100 µM was 100% and the pIC50 was 5.00.
As to `CSCC[C@@H](CSc1ccccc1)NC(=O)N[C@H](CSc1ccccc1)CC(=O)O` [Compound 8, (3S)-3-{[({(1S)-3-(methylsulfanyl)-1-[(phenylsulfanyl)methyl]propyl}amino)carbonyl]amino}-4-(phenylsulfanyl)butanoic acid], under “Table 1”, the inhibition at 100 µM was 100% and the pIC50 is 5.40.
For `O=C(O)C[C@H](NC(=O)O[C@@H](CSCc1ccccc1)CSc1ccccc1)c1ccc2c(c1)OCO2` [(3S)-3-(1,3-benzodioxol-5-yl)-3-{[({(1S)-2-(benzylthio)-1-[(phenylthio)methyl]ethyl}oxy)carbonyl]amino}propanoic acid] the same measures were 100% and 5.52.
Consider `CCCC[C@H](NC(=O)N[C@@H](CC(=O)O)c1ccc2c(c1)OCO2)C(=O)NCc1ccc(NCc2cccs2)cc1` [Compound 37, 3-(3S)-3-(1,3-benzodioxol-5-yl)-3-([((1S)-1-[(4-(2-thienylmethyl)aminobenzyl)amino]carbonylpentyl)amino]carbonylamino)propanoic acid], for which the pIC50 (Table 2) was 7.52.
Take `O=C(O)C[C@H](NC(=O)N[C@H](CSc1ccccc1)CS(=O)(=O)Cc1ccccc1)c1ccc2c(c1)OCO2` [(3S)-3-(1,3-benzodioxol-5-yl)-3-(((((1R)-2-(benzylsulfonyl)-1-((phenylsulfanyl)methyl)ethyl)amino)carbonyl)amino)propanoic acid]: for the setting “Table 1”, the inhibition at 100 µM was 100% and the pIC50 was 6.00.
For `COC(=O)NCCCC[C@@H](CS(=O)(=O)c1ccccc1)NC(=O)N[C@@H](CC(=O)O)c1ccc2c(c1)OCO2` [(9S,13S)-13-(1,3-benzodioxol-5-yl)-3,11-dioxo-9-[(phenylsulfonyl)methyl]-2-oxa-4,10,12-triazapentadecan-15-oic acid] the same measures were 20% and under 4.00.
`O=C(O)CSC[C@@H](CSc1ccccc1)NC(=O)N[C@@H](CC(=O)O)c1ccc2c(c1)OCO2` [(3S)-3-(1,3-benzodioxol-5-yl)-3-{[({(1S)-2-[(carboxymethyl)sulfanyl]-1-[(phenylsulfanyl)methyl]ethyl}amino)carbonyl]amino}propanoic acid]: where the note is “Table 1”, the inhibition at 100 µM was 100% and the pIC50 is 5.70.
Taken in the same sequence, the figures for `CC(C)[C@@H](CSc1ccccc1)NC(=O)N[C@@H](CC(=O)O)c1ccc2c(c1)OCO2` [(3S)-3-(1,3-benzodioxol-5-yl)-3-(((((1S)-2-methyl-1-((phenylsulfanyl)methyl)propyl)amino)carbonyl)amino)propanoic acid] were 100% and 5.60.
As to `CSCC[C@@H](CSc1ccccc1)NC(=O)N[C@H](CSC)CC(=O)O` [(3S)-4-(methylsulfanyl)-3-{[({(1S)-3-(methylsulfanyl)-1-[(phenylsulfanyl)methyl]propyl}amino)carbonyl]amino}butanoic acid], under “Table 1”, the inhibition at 100 µM was 99% and the pIC50 is 5.10.
For `CCOC[C@@H](CSc1ccccc1)OC(=O)N[C@@H](CC(=O)O)c1ccc2c(c1)OCO2` [(3S)-3-(1,3-benzodioxol-5-yl)-3-{[({(1S)-2-ethoxy-1-[(phenylthio)methyl]ethyl}oxy)carbonyl]amino}propanoic acid] the same measures were 100% and 5.30.
With `CCCSC[C@@H](Cc1ccccc1)NC(=O)N[C@@H](CC(=O)O)c1ccc2c(c1)OCO2` [(3S)-3-(1,3-benzodioxol-5-yl)-3-[({[(1R)-1-benzyl-2-(propylthio)ethyl]amino}carbonyl)amino]propanoic acid], under “Table 1”, the inhibition at 100 µM is 100% and the pIC50 was 5.70.
Taken in the same sequence, the figures for `CCCCCCCCSC[C@@H](CSc1ccccc1)NC(=O)N[C@@H](CC(=O)O)c1ccc2c(c1)OCO2` [(3S)-3-(1,3-benzodioxol-5-yl)-3-{[({(1S)-2-(octylsulfanyl)-1-[(phenylsulfanyl)methyl]ethyl}amino)carbonyl]amino}propanoic acid] were 98% and 5.30.
Taken in the same sequence, the figures for `CC(C)[C@@H](CSCc1ccccc1)NC(=O)NC(CC(=O)O)c1ccc2c(c1)OCO2` (stereo partly drawn) [3-(1,3-benzodioxol-5-yl)-3-{[({(1S)-1-[(benzylsulfanyl)methyl]-2-methylpropyl}amino)carbonyl]amino}propanoic acid] were 100% and 5.00.
Consider `CSCC[C@@H](CSc1ccc(NS(C)(=O)=O)cc1)NC(=O)N[C@@H](CC(=O)O)c1ccc2c(c1)OCO2` [(3S)-3-(1,3-benzodioxol-5-yl)-3-{[({(1S)-3-(methylsulfanyl)-1-[({4-[(methylsulfonyl)amino]phenyl}sulfanyl)methyl]propyl}amino)carbonyl]amino}propanoic acid], for which, under “Table 1”, the inhibition at 100 µM was 100% and the pIC50 is 6.30.
Taken in the same sequence, the figures for `CSCC[C@@H](CSc1cccc(NS(C)(=O)=O)c1)NC(=O)N[C@@H](CC(=O)O)c1ccc2c(c1)OCO2` [(3S)-3-(1,3-benzodioxol-5-yl)-3-[({[(1S)-1-[({3-[(methylsulfonyl)amino]phenyl}thio)methyl]-3-(methylthio)propyl]amino}carbonyl)amino]propanoic acid] were 100% and 6.40.
Taken in the same sequence, the figures for `CCCC[C@@H](CSc1ccccc1)NC(=O)N[C@@H](CC(=O)O)c1ccc2c(c1)OCO2` [(3S)-3-(1,3-benzodioxol-5-yl)-3-{[({(1S)-1-[(phenylsulfanyl)methyl]pentyl}amino)carbonyl]amino}propanoic acid] were 100% and 6.40.
Taken in the same sequence, the figures for `CC(C)[C@@H](CSc1ccccc1)NC(=O)NC(CC(=O)O)c1ccc2c(c1)OCO2` (stereo partly drawn) [3-(1,3-benzodioxol-5-yl)-3-{[({(1S)-2-methyl-1-[(phenylsulfanyl)methyl]propyl}amino)carbonyl]amino}propanoic acid] were 99% and 5.30.
For `CC(C)[C@@H](CSCCCc1ccccc1)NC(=O)N[C@@H](CC(=O)O)c1ccc2c(c1)OCO2` [(3S)-3-(1,3-benzodioxol-5-yl)-3-({[((1S)-2-methyl-1-{[(3-phenylpropyl)sulfanyl]methyl}propyl)amino]carbonyl}amino)propanoic acid], under “Table 1”, the inhibition at 100 µM was 99% and the pIC50 was 4.70.
For `O=C(O)C[C@H](NC(=O)N[C@@H](CCSc1ccccc1)CSc1ccccc1)c1ccc2c(c1)OCO2` [(3S)-3-(1,3-benzodioxol-5-yl)-3-{[({(1S)-3-(phenylthio)-1-[(phenylthio)methyl]propyl}amino)carbonyl]amino}propanoic acid] the same measures were 100% and 6.52.
For `CSCC[C@@H](CSc1ccccc1N)NC(=O)N[C@@H](CC(=O)O)c1ccc2c(c1)OCO2` [(3S)-3-[({[(1S)-1-{[(2-aminophenyl)sulfanyl]methyl}-3-(methylsulfanyl)propyl]amino}carbonyl)amino]-3-(1,3-benzodioxol-5-yl)propanoic acid] the same measures were 100% and 6.52.
In the case of `O=C(O)C[C@H](NC(=O)N[C@@H](CSCc1ccccc1)CSc1ccccc1)c1ccc2c(c1)OCO2` [(3S)-3-(1,3-benzodioxol-5-yl)-3-{[({(1S)-2-(benzylsulfanyl)-1-[(phenylsulfanyl)methyl]ethyl}amino)carbonyl]amino}propanoic acid], for the setting “Table 1”, the inhibition at 100 µM is 100% and the pIC50 is 7.70.
Taken in the same sequence, the figures for `CSCC[C@@H](COc1ccccc1)NC(=O)N[C@@H](CC(=O)O)c1ccc2c(c1)OCO2` [(3S)-3-(1,3-benzodioxol-5-yl)-3-[({[(1S)-3-(methylsulfanyl)-1-(phenoxymethyl)propyl]amino}carbonyl)amino]propanoic acid] were 100% and 4.70.
For `O=C(O)C[C@H](NC(=O)N[C@@H](CC(=O)O)c1ccc2c(c1)OCO2)c1ccc2c(c1)OCO2` [N,N'-bis[(1S)-1-(1,3-benzodioxol-5-yl)-2-carboxyethyl]urea] the same measures were 99% and 5.15.

For orientation: pIC50 means −log10 of the IC50, conventionally taken in molar units. Usually inhibition stands for the percentage by which the read-out fell short of the control.
